Results taken from patent publication US5214036A, “Benzoporphyrin derivatives for photodynamic therapy” (University of British Columbia, priority 1990, dated 1993).

Assays:
[1] = Absorption spectrum / absorption maximum; assay type: physicochemical; conditions: FIG. 3
VLDL = test: Step density gradient of BPD added to isolated lipoprotein fraction; assay type: in vitro ADME, human; conditions: added to lipoprotein fraction after separation of albumin, % of total added
Experimental: (§1) (b) Determining BPD Plasma Distribution. Experiments were performed to determine the association of BPDs with plasma protein and lipoprotein fractions. When density ultracentrifugation was used for the analysis, 2 ml samples of human plasma were incubated for 18 hours at 4° C. in the presence of 100 μg of ^3 H-BPD-MA. The BPD-plasma solution was then adjusted to a density of 1.21 g/ml by the addition of solid KBr. A step gradient was prepared using stock KBr density solutions at 1.006, 1.019, and 1.063 g/ml, layered manually into the bottom of centrifuge tubes using a glass syringe and a narrow bore needle. The BPD-plasma solution was then layered into the bottom of the tube. Separation of the plasma proteins was accomplished by centrifugation in a Beckman SW 41 rotor for 24 hours at 40,000 rpm and 15° C. 0.5 ml fractions were collected, and the protein content of each fraction was monitored by measuring absorbance at 280 nm. 100 μl of each fraction was mixed with 5 ml Aquasol (NEN) and counted in a liquid scintillation counter.
(§2) To improve the HDL-albumin resolution, albumin was removed by ultracentrifugation. Plasma was mixed with ^14 C-BPD-MA and incubated for 18 hours at 4° C. The density of the mixture was then adjusted to 1.21 g/ml by the addition of solid KBr, followed by centrifugation at 40,000 rpm for 48 hours. […] The lipoprotein and lipoprotein-depleted fractions were counted for BPD-MA content. 82% of total ^14 C-BPD-MA added was recovered in the plasma lipoprotein fraction and 5% in the lipoprotein deficient fraction.
(§3) When albumin and other serum proteins were separated from the lipoprotein fraction before the addition of ^14 C-BPD-MA, a shift in binding was observed. After step density gradient separation, the majority of BPD-MA was still recovered with HDL (38% of total ^14 C-BPD-MA added); however in this case, the association with LDL and VLDL fractions appeared to be equivalent (17% with LDL and 18% with VLDL) (FIG. 5). […] Polyacrylamide gel electrophoresis of the HDL fractions from these density gradients confirmed that very little albumin was present. […]

LDL = test: as above; assay type: in vitro ADME, human; conditions: added to lipoprotein fraction after separation of albumin, % of total added
Experimental: as §1, §2, §3

HDL = test: as above; assay type: in vitro ADME, human; conditions: added to lipoprotein fraction after separation of albumin, % of total added
Experimental: as §1, §2, §3

[2] = background; cited from earlier work
[3] = system: high density lipoproteins (HDLs); conditions: Barel et al.; cited from earlier work

C=Cc1c(C)c2cc3nc(cc4[nH]c(cc5nc(cc1[nH]2)C(C)=C5CCC(=O)O)c(CCC(=O)O)c4C)C1(C)C3=CC=C(C(=O)OC)C1C(=O)OC (stereo not shown) [BPD-DA]
major absorption peak [1]: about 685 nm
associated with VLDL (VLDL): 20%
associated with LDL (LDL): 13%
recovered with HDL (HDL): 54%

CC1=C(CCC(=O)O)c2cc3[nH]c(cc4nc(cc5[nH]c(cc1n2)c(C)c5C(C)O)C(C)=C4C(C)O)c(C)c3CCC(=O)O (stereo not shown) [hematoporphyrin]
additional absorbance [2]: around 630 nm
maximum absorbance [2]: around 400 nm
affinity for high density lipoproteins [3]: higher affinity for high density lipoproteins (HDLs)
